Test results as given in patent US20150164868A1, “METHODS OF ADMINISTERING RIFAXIMIN WITHOUT PRODUCING ANTIBIOTIC RESISTANCE” (priority 2012, published 2015).
Converted amounts (≈) assume the structure as drawn. Where two headings read alike, the source gives them in different places.

Experiments:
coliforms [1] = assay: Stool coliform culture (MacConkey agar) with rifaximin gavage; format: in vivo, Sprague-Dawley rats
Description: (§1) After this equilibration period, fresh stool was collected from each rat (n=30) by anal stimulation. The stool collected on Day 0 was homogenized and plated by serial dilution with 1XPBS (Phosphate Buffered Saline) on Blood Agar with Phenylethyl Alcohol (PEA) to select for the presence of the Staphylococcal spp. Similarly, homogenized stool was serially plated on MacConkey agar to select for and determine coliform counts in the stool. All plates were incubated for 24 hours at 37° C. Based on serial stool dilution and colony counts, the baseline stool levels of Staphylococcus spp. and coliforms were determined
Rats were divided into 3 treatment groups and gavaged daily for 10 days with or without high dose rifaximin Group 1 was gavaged with PBS alone, Group 2 was gavaged daily with rifaximin 200 mg in PBS. Groups 1 and 2 were euthanized after the 10 days of daily gavage. Group 3 was gavaged daily with rifaximin 200 mg in PBS and housed for 30 days following completion of rifaximin before euthanasia. During the rifaximin treatment, fresh stool was collected daily as described above. […] After the completion of 10 days of treatment, 10 rats were euthanized for bacterial quantitation by culture and qPCR throughout the intestinal tract. […] These rats had interval stool culture for quantitation of Staphylococcus spp. and coliforms and the determination of recovery time of stool flora if any.

Staphylococcus spp. [2] = assay: Stool Staphylococcus spp. colony counts (PEA agar) during and after daily rifaximin gavage; format: in vivo, Sprague-Dawley rats
Excerpt: Adult male Sprague-Dawley rats were acquired and quarantined for 5 days. During this time, chow was standardized to ensure all animals had identical feeding type.
as §1
Rats were divided into 3 treatment groups and gavaged daily for 10 days with or without high dose rifaximin Group 1 was gavaged with PBS alone, Group 2 was gavaged daily with rifaximin 200 mg in PBS. Groups 1 and 2 were euthanized after the 10 days of daily gavage. Group 3 was gavaged daily with rifaximin 200 mg in PBS and housed for 30 days following completion of rifaximin before euthanasia. During the rifaximin treatment, fresh stool was collected daily as described above. Again, stool was homogenized and plated by serial dilution on MacConkey and PEA agar to determine coliform and Staphylococcus spp. counts during the treatment. After the completion of 10 days of treatment, 10 rats were euthanized for bacterial quantitation by culture and qPCR throughout the intestinal tract. The remaining 10 rats were followed for 30 days after completing rifaximin. These rats had interval stool culture for quantitation of Staphylococcus spp. and coliforms and the determination of recovery time of stool flora if any.

Staphylococcus spp. [3] = assay: Rifampicin susceptibility testing (E-test strip) of Staphylococcus colonies isolated from rat stool; format: cell-based; conditions: for MIC: read-out: mean inhibitory concentration (MIC) for rifampicin
Description: Rifampicin susceptibility was tested in Staphylococcus spp. isolated from stool of rats before and after rifaximin treatment for 10 days. From PEA plates, 30 random recognizable Staphylococcus colonies were picked for baseline cultures, suspended in PBS and spread on PEA agar plates to create a lawn. A commercially available rifampicin test strip was added to each lawn to detect rifampicin resistance. The range of rifampicin mean inhibitory concentrations (MICs) detected by E-test was 0.002 to 32 μg/mL. Based on manufacturer's instruction, growth at <2 ug/mL was considered sensitive, growth at 2-4 ug/mL was considered intermediate resistance to rifampicin, and growth at >4 ug/mL was considered resistant to rifampicin. After 10 days of rifaximin, stool was again plated on PEA and another 30 staphylococcal colonies were picked for producing a lawn to analyze rifampicin resistance using the applied test strip. Since no significant Staphylococcus spp. colonies remained on day 30 post rifaximin treatment, sensitivity testing could not be assessed.

coliform bacteria = assay: Effect of dietary fat with rifaximin on coliform bacteria; format: in vivo, Sprague-Dawley rats; conditions: healthy rats
Description: Adult male Sprague-Dawley Rats were randomly assigned to three groups. Group 1 was gavaged daily for 7 days with rifaximin in PBS. Group 2 received rifaximin 200 mg in lipid daily by gavage. Group 3 were 10 rats only given PBS (control). Rats had fresh stool collected by anal stimulation at baseline and daily during gavage. The stool was homogenized and plated by serial dilution on MacConkey Agar (BD Diagnostics, Franklin Lakes, N.J.). This is a selective agar for coliform bacteria. Based on serial dilution, the total number of coliform bacteria was determined.

total bacteria = assay: qPCR of total luminal bacteria by bowel segment; format: in vivo, Sprague-Dawley rats
Excerpt: (§2) For the examination of luminal bacterial counts, rats were euthanized and dissected after 10 days of PBS (n=10) (control), after 10 days of rifaximin (n=10) and 30 days post rifaximin (n=10). During the dissection, pre-specified segments of duodenum, jejunum, ileum, cecum and left colon were ligated and resected as previously described (Pimentel et al. 2008. Dig Dis Sci 53:982-989). Luminal contents were extracted from each segment. For culture of coliforms, serial dilutions were again prepared and plated on MacConkey agar then incubated and counted. In addition, luminal contents were also used to determine total bacterial counts by qPCR.
To quantify bacteria in the luminal contents, qPCR was used. DNA was isolated from luminal contents of the duodenal, jejunal, ileal, cecal and left colon samples using commercially available kits. Bacterial universal primers (Mohammadi et al. 2003. J Clin Microbiol 41(10):4796-4798) were used to amplify the 16S rRNA gene from DNA using a commercially available RT-PCR detection system and optical grade 96-well plates. Samples were run in duplicate. To generate standard curves, the Ct values were analyzed from ten-fold dilutions of lysed Escherichia coli cultures. E. coli from a number of laboratory strains were pooled and grown in LB media.
The same adult male Sprague-Dawley rats from the coliform culture study described above were used here. In this experiment, ten rats were euthanized at day 10 of rifaximin treatment, and ten rats were euthanized at day 30 after completion of rifaximin treatment. As a control to these two groups, a group of 10 rats were gavaged with only PBS (placebo); these rats were also euthanized after 10 days. After euthanasia, rats were dissected to remove a segment of ileum, jejunum and duodenum as well as cecum and left colon. Luminal contents from these 5 areas were removed, and DNA was extracted. Quantitative PCR (qPCR) was used to determine the total number of bacteria in each segment of bowel. These counts were compared between control, rifaximin treated and 30 day post rifaximin rats (Example 1).

[4] = tested on: Staphylococcus, Streptococcus, Enterococcus, and Enterobacteriaceae; conditions: species of Staphylococcus; cited from earlier work
Staphylococcus = assay: IBS model (post C. jejuni): presence of Staphylococcus after rifaximin; format: in vivo, Sprague-Dawley rats; conditions: rats with IBS phenotype; 51 rats rifaximin vs 50 placebo
Description: Following acute infection with C. jejuni, rats develop a phenotype of IBS and small intestinal bacterial overgrowth. For the examination of antibiotic resistance following rifaximin treatment in subject with IBS, 100 Sprague-Dawley rats were gavaged with 10^8 cfu of C. jejuni 81-176 within 30 minutes of gavage with a bicarbonate solution using a ball-tipped gavage needle. After gavage rats were followed with daily stool culture for C. jejuni for seven consecutive days to verify infection. In addition, stool was characterized on the basis of consistency.
Thirty days from gavage, stool samples were collected on two consecutive days to confirm absence of C. jejuni in stool. Once rats were confirmed to have cleared C. jejuni, they were housed in common conditions for a period of three months. […]
The rats were then randomized and received either a 200 mg dose of rifaximin in PBS or PBS alone daily for 10 days. […] Upon completion of treatment with rifaximin, the rats were monitored for an additional seven days. […]
The effect of rifaximin on Staphylococcal species was tested and antibiotic resistance was examined. The contents of the ligated bowel segments were examined to determine the quantity and type of bacteria by segment and evaluate expression of mucosal cytokines. […]

coliforms [5] = assay: Luminal coliform culture by bowel segment; format: in vivo, Sprague-Dawley rats; conditions: after treatment with rifaximin vs non-treated control rats; bowel segments (FIG. 3)
Excerpt: as §2

Staphylococcal spp = assay: IBS model: Staphylococcus sensitivity testing to rifampin (E-test strips); format: cell-based
Description: The effect of rifaximin on Staphylococcal species was tested and antibiotic resistance was examined. The contents of the ligated bowel segments were examined to determine the quantity and type of bacteria by segment and evaluate expression of mucosal cytokines.
Among rats with detectable staphylococcus, rifampin resistance was tested using E-test strips and Data was analyzed by Fisher's Exact Test. […] (Table 2)

[6] = oral administration; Descombe et al. 1994; cited from earlier work
[7] = after 10 days of gavage with rifaximin, 30 random colonies
[8] = all rats receiving rifaximin (n=20) vs control rats
[9] = Staphylococcus from IBS-phenotype rats treated with rifaximin
[10] = sensitivity to rifampin, IBS-phenotype rats treated with rifaximin

(2S,16Z,18E,20S,21S,22R,23R,24R,25S,26S,27S,28E)-5,6,21,23,25 Pentahydroxy-27-methoxy-2,4,11,16,20,22,24,26-octamethyl-2,7-(epoxypentadeca-(1,11,13)trienimino)benzofuro(4,5-e)pyrido(1,2,-a)benzimidazole-1,15(2H)-dione,25-acetate) [rifaximin]
time to recovery of stool coliform count (coliforms [1]; after the 10-day rifaximin treatment): three | median stool coliform count (coliforms [1]; day 10 of high dose rifaximin, P<0.01 vs baseline): 2.2×10^3 cfu/mL | Staphylococcus spp. colonies in stool 30 days after rifaximin (Staphylococcus spp. [2]; 30 days after completion of 10 days rifaximin): insufficient Staphylococcus spp. colonies in any of the rats to analyze | range of total count of Staphylococcus spp in stool (Staphylococcus spp. [2]; after 10 days of rifaximin 200 mg daily gavage, 20 rats): 0-8.6×10^5 cfu/ml | median total count of Staphylococcus spp in stool (Staphylococcus spp. [2]; after 10 days of rifaximin 200 mg daily gavage, total of S. aureus and coag-Staphylococcus, 20 rats, p<0.01 vs baseline): 1.20×10^5 cfu/ml | level of S. aureus in stool of rats with detectable S. aureus (Staphylococcus spp. [2]; day 10 of rifaximin treatment): 2×10^3 cfu/ml | number of rats with detectable S. aureus in stool (Staphylococcus spp. [2]; day 10 of rifaximin treatment, of 20 rats (18/20 at baseline)): 5 | time course of Staphylococcus spp in stool (Staphylococcus spp. [2]; during rifaximin 200 mg daily gavage): diminish significantly in stool by day 3 | Staphylococcal colonies Intermediate (2-4 ug/mL) resistance to rifampin, % (Staphylococcus spp. [3]; [7]): 3.3% | Staphylococcal colonies Sensitive (<2 ug/mL) to rifampin, % (Staphylococcus spp. [3]; [7]): 96.6% | normal flora (coliform) counts in the small bowel (coliform bacteria; rifaximin by itself or with oil as dissolving media): did not appear to change normal flora counts | median coliform count in the duodenum (coliform bacteria; rifaximin in PBS or rifaximin 200 mg in lipid, daily gavage 7 days): 0 | durability of the reduction in duodenal bacteria counts by qPCR (total bacteria; after 10 days of rifaximin and 30 days post, P=0.08, not quite significant): sustained 30 days after the completion of rifaximin | duodenal total bacterial counts by qPCR (total bacteria; [8]): significant reduction in duodenal bacterial counts | jejunal total bacterial counts by qPCR (total bacteria; [8]): appeared to diminish as well, this did not reach statistical significance | total bacterial counts by qPCR in the ileum, cecum or left colon (total bacteria; [8]): no differences were seen | antibacterial activity in vitro [4]: active | rate of colonization of rats with Staphylococcus (Staphylococcus): reduction in the rate of colonization | change in luminal coliform counts by culture (coliforms [5]): no significant change in coliform counts by culture | Median MIC of rifampin (Staphylococcal spp; [9]): 0.214 µg/mL | Range of rifampin MIC (Staphylococcal spp; [9]): 0.012 to 16 µg/mL | rifampin resistance of Staphylococcus after treatment (Staphylococcal spp; rats with an IBS phenotype, detectable staphylococcus, Fisher's Exact Test): no evidence of rifampin resistance | % of rats with resistance (Staphylococcal spp; resistance to rifampin, 51 IBS-phenotype rats treated with rifaximin): 1.96% | # of intermed Staphylococcal spp (Staphylococcal spp; [10]): 0 | # of resistant Staphylococcal spp (Staphylococcal spp; [10]): 1 | # of sensitive Staphylococcal spp (Staphylococcal spp; [10]): 10 | systemic absorption [6]: negligible systemic absorption

CO[C@H]1/C=C/O[C@@]2(C)Oc3c(C)c(O)c4c(O)c(c(/C=N/N5CCN(C)CC5)c(O)c4c3C2=O)NC(=O)/C(C)=C\C=C\[C@H](C)[C@H](O)[C@@H](C)[C@@H](O)[C@@H](C)[C@H](OC(C)=O)[C@@H]1C [rifampicin]
MIC (Staphylococcus spp. [3]; 240 h, Staphylococcus colonies from rat stool after 10 days of high dose rifaximin, P=0.63 vs baseline): 0.91 ± 0.52 µg/mL (≈ 1.11 µM) | MIC (Staphylococcus spp. [3]; Staphylococcus colonies from rat stool at baseline (before rifaximin)): 1.1 ± 1.6 µg/mL (≈ 1.34 µM)
